The subject of assay [1] is MCF‐7 cells. Further details: method as in PMID 36807947. The settings on record: 470 nm LED, 17±1.64 J/cm^2, published previously, read-out: Light IC50 (converted); cited from earlier work.
In assay [2] the test system is CHO cells. As to the kind of experiment: ROS imaging with H2DCFDA in live cells. The settings on record: 30 μM, 17 h; 488 nm (0.38 mW/cm^2) for 5 minutes. Format: cell-based, Chinese Hamster. As for the experimental part:
To study the production of ROS in a live cell environment a commercial ROS dye, H2DCFDA was used. CHO and MCF‐7 cells were incubated with MB2PI (30 μM, 17 h), washed with PBS and co‐stained with H2DCFDA (5 μM, 30 min). To ensure no photoactivation of MB2PI, emission from H2DCFDA was collected alone prior to the excitation of the BODIPY. The complex was then irradiated continuously at 488 nm (0.38 mW/cm^2) for 5 minutes. […] Weak emission of H2DCFDA was observed prior to irradiation, consistent with the low cytotoxicity of the complex. However, after irradiation, the fluorescence intensity of the ROS dye increases dramatically indicating ROS production, consistent with the high phototoxicity of MB2PI in both test cell lines. The higher phototoxicity of MB2PI in MCF‐7 cells restricted the ROS imaging study to CHO cells as the MCF‐7 cells began to die rapidly upon irradiation. Controls completed by adding H2DCFDA in test cells without MB2PI confirmed no ROS production with or without irradiation at 488 nm.
Figure S32. DPBF (10 mM) 1O2 scavenger assay with B2P, MB2P, B2PI or MB2PI in methanol from 0-210 seconds irradiation, where absorbance at 410 nm was recorded every 30 seconds.
CHO and MCF-7 cells were treated with MB2PI (30 µM, 17 h) for the ROS imaging studies. […]
A 63x oil immersion objective was used to acquire images. The irradiance was determined using a power meter from Edmund Optics. […]

In assay [3] the test system is CHO cells. As to the kind of experiment: Hypoxic phototoxicity (CoCl2 induced hypoxia). The settings on record: Cricetulus griseus, 300 μM CoCl2 4 h, 470 nm LED, maximum 1 μM tested, read-out: hypoxic IC50 (light). The assay is classed as cell-based, Chinese Hamster. The procedure:
(§1) Cobalt chloride (CoCl2), a popular chemical hypoxia inducer, was added to the cells (after incubation with B2PI or MB2PI) at a total concentration of 300 μM CoCl2 in media and incubated for 4 h to mimic hypoxic conditions. In comparison to low‐oxygen induced hypoxia, this method stabilises hypoxia inducible factor 1 alpha subunit (HIF‐1α) for some hours after treatment, allowing a greater window for the phototoxicity studies.[52] We have previously confirmed the chemical induction of hypoxia with CoCl2 using an enzyme linked immunosorbent assay to detect HIF‐1α in cell lysates.[53] The cells were irradiated immediately upon removal of the media/CoCl2 solution as per the normoxic phototoxicity protocol.
(§2) Dark‐ and photo‐toxicity studies were performed by seeding CHO and MCF‐7 cells in clear 96‐well plates (Nunc) and treating with varying concentrations of B2P, MB2P, B2PI and MB2PI. Phototoxicity experiments were carried out using a 470 nm LED. For hypoxic phototoxicity studies, hypoxia was mimicked by adding CoCl2 to the cells prior to irradiation. Cell viability was determined using the alamar blue assay and absorbance measured with a BMG LABTECH CLARIOstar plate reader.
(§3) Hypoxic Phototoxicity Studies
(§4) Hypoxic phototoxicity studies were performed as per routing phototoxicity protocol. Hypoxia […]
(§5) A 1 M stock of CoCl2 in sterile 1X PBS […]

Assay [4] has as its system MCF‐7 cells. As to the kind of experiment: Hypoxic phototoxicity (CoCl2 induced hypoxia). Format: cell-based. As to conditions: Homo sapiens, MCF7, 300 μM CoCl2 4 h, 470 nm LED, maximum 1 μM tested, read-out: hypoxic IC50 (light). As for the experimental part:
as §1, §2, §3, §4, §5

The values that follow come from publication PMC11653243, “Enhancing Phototoxicity in BODIPY‐Perylene Charge Transfer Dyads by Combined Iodination and Mesylation” (Chemistry (Weinheim an Der Bergstrasse, Germany), 2024).

Where two headings read alike, the source gives them in different places.

For the compound `CC1=C(I)C(C)=[N+]2C1=C(c1ccccc1)c1c(C)c(-c3ccc4c5cccc6cccc(c7cccc3c74)c65)c(C)n1[B-]2(F)F` [B2PI], the IC50 in assay [1] was 235 nM.

As for `CC1=C(c2ccc3c4cccc5cccc(c6cccc2c63)c54)C(C)=[N+]2C1=C(c1c(C)cc(C)cc1C)c1c(C)c(I)c(C)n1[B-]2(F)F` [MB2PI], the “ROS production (H2DCFDA fluorescence) after irradiation” value in assay [2] is “increased production of ROS”. The IC50 in assay [3] and in assay [4] was > 1000 nM each time.
